Laboratory results published in patent US20090311237A1, “Combination therapy using a soluble hyaluronidase and a bisphosphonate” (priority 2008, published 2009).
Like-named read-outs stand apart in the source and are kept apart here.

Assay: Pharmacokinetics of ZA in pig serum after IV or SC infusion with or without rHuPH20 (LC-MS-MS, non-compartmental analysis)
Format: in vivo
Conditions: female, Yorkshire, pig, serum, subcutaneous, […], ZA […], read-out: Zoledronic Acid Serum Concentration
Experimental: A pharmacokinetic study of zoledronic acid (ZA) co-administered with rHuPH20 in female Yorkshire swines was conducted. The primary objective of the study was to determine the bioavailability of zoledronic acid dosed via subcutaneous (SC) co-administration with human recombinant hyaluronidase PH20 (rHuPH20) and to compare the overall exposure to an equivalent IV dose.
Animals in Study Group 1 were dosed with 0.15 mg/kg ZA given via a 20-minute IV infusion. Animals in Study Groups 2 and 3 were dosed subcutaneously (SC) with 0.15 mg/kg ZA without and with rHuPH20, respectively, in different SC delivery volumes.
Following ZA dose administration, serial blood samples were collected via vascular access ports (VAPs) for serum preparation and determination of ZA concentrations. Blood collection times were at 1, 3, 5, 10, 15, 20, 30, 45, and 60 minutes, and at 1.5, 2, 3, 4, 6, 8, 10, 24, 48, and 72 hours post dose. Urine samples were also collected to compare excretion characteristics between IV and SC routes of administration. Collection times for urine were at 15 minutes before dosing (−15 min.), continuously from dose initiation to 2 hours post dose, and at 4, 6, 8, and 24 hours post dose thereafter.
Serum concentration of ZA was determined using a qualified LC-MS-MS assay after derivatization with diazomethane (Zhu, L S et al. (2006) Rapid Commun. Mass Spectrom. 20: 3421-3426; “Qualification Data of An LC-MS/MS Method for the Determination of Zoledronate in Porcine Serum”, MDS Pharma Services Study No. AA43671-01, Report Date 14 Sep. 2007). The assay range was from 2.0 to 400 ng/mL with a lower limit of quantitation (LLOQ) at 2.0 ng/mL. Urine concentration of ZA was determined by a similar well qualified LC-MS-MS method (“Qualification Data of An LC-MS/MS Method for the Determination of Zoledronate in Porcine Urine”, MDS Pharma Services Study No. AA43671-02, Report Date 14 Sep. 2007) with an assay LLOQ at 10 ng/mL.
Pharmacokinetic (PK) analyses of ZA serum concentration versus time data were conducted using WinNonlin v5.1 (Pharsight, Mountain View, Calif.). Non-compartmental analysis was used for derivation of primary and secondary pharmacokinetic (PK) parameters. AUC, Cmax, and Tmax were compared between dose routes, between co-administration with rHuPH20, and with dose of rHuPH20.

SMILES: O=P(O)(O)C(O)(Cn1ccnc1)P(=O)(O)O [ZA, 1-hydroxy-2-(1H-imidazol-1-yl)ethylidene-1,1-bisphosphonic acid]
- concentration at 1 h (Time 1 h, pig ID 70, Study Group 2, SC, 10 mL, 1.6 min, rHuPH20 0 U/mL): 101 ng/mL
- concentration at 2 h (Time 2 h, pig ID 59, Study Group 2, SC, 100 mL, 16 min, rHuPH20 0 U/mL): 22.9 ng/mL
- concentration at 2 h (Time 2 h, pig ID 60, Study Group 2, SC, 100 mL, 16 min, rHuPH20 0 U/mL): 75.8 ng/mL
- concentration at 2 h (Time 2 h, pig ID 62, Study Group 2, SC, 50 mL, 8 min, rHuPH20 0 U/mL): 28.4 ng/mL
- concentration at 2 h (Time 2 h, pig ID 69, Study Group 2, SC, 25 mL, 4 min, rHuPH20 0 U/mL): 31.8 ng/mL
- concentration at 2 h (Time 2 h, pig ID 70, Study Group 2, SC, 10 mL, 1.6 min, rHuPH20 0 U/mL): 37.7 ng/mL
- concentration at 3 h (Time 3 h, pig ID 59, Study Group 2, SC, 100 mL, 16 min, rHuPH20 0 U/mL): 13.3 ng/mL
- concentration at 3 h (Time 3 h, pig ID 60, Study Group 2, SC, 100 mL, 16 min, rHuPH20 0 U/mL): 27.5 ng/mL
- concentration at 3 h (Time 3 h, pig ID 62, Study Group 2, SC, 50 mL, 8 min, rHuPH20 0 U/mL): 13.5 ng/mL
- concentration at 3 h (Time 3 h, pig ID 69, Study Group 2, SC, 25 mL, 4 min, rHuPH20 0 U/mL): 20.5 ng/mL
- concentration at 3 h (Time 3 h, pig ID 70, Study Group 2, SC, 10 mL, 1.6 min, rHuPH20 0 U/mL): 22.2 ng/mL
- concentration at 4 h (Time 4 h, pig ID 59, Study Group 2, SC, 100 mL, 16 min, rHuPH20 0 U/mL): 6.48 ng/mL
- concentration at 4 h (Time 4 h, pig ID 60, Study Group 2, SC, 100 mL, 16 min, rHuPH20 0 U/mL): 9.03 ng/mL
- concentration at 4 h (Time 4 h, pig ID 62, Study Group 2, SC, 50 mL, 8 min, rHuPH20 0 U/mL): 4.74 ng/mL
- concentration at 4 h (Time 4 h, pig ID 69, Study Group 2, SC, 25 mL, 4 min, rHuPH20 0 U/mL): 8.11 ng/mL
- concentration at 4 h (Time 4 h, pig ID 70, Study Group 2, SC, 10 mL, 1.6 min, rHuPH20 0 U/mL): 9.47 ng/mL
- concentration at 6 h (Time 6 h, pig ID 60, Study Group 2, SC, 100 mL, 16 min, rHuPH20 0 U/mL): 3.6 ng/mL
- concentration at 6 h (Time 6 h, pig ID 62, Study Group 2, SC, 50 mL, 8 min, rHuPH20 0 U/mL): 2.99 ng/mL
- concentration at 6 h (Time 6 h, pig ID 69, Study Group 2, SC, 25 mL, 4 min, rHuPH20 0 U/mL): 2.92 ng/mL
- concentration at 6 h (Time 6 h, pig ID 70, Study Group 2, SC, 10 mL, 1.6 min, rHuPH20 0 U/mL): 4.09 ng/mL
- concentration at 8 h (Time 8 h, pig ID 70, Study Group 2, SC, 10 mL, 1.6 min, rHuPH20 0 U/mL): 2.07 ng/mL
- concentration at […] (pig 56, Study Group 3, SC, rHuPH20 10000 U/mL, 25 mL over 4 min, time […]): 29.2 ng/mL
- concentration at 2 h (pig 58, Study Group 3, SC, rHuPH20 10000 U/mL, 50 mL over 8 min, time 2 h): 40.1 ng/mL
- concentration at 3 h (pig 58, Study Group 3, SC, rHuPH20 10000 U/mL, 50 mL over 8 min, time 3 h): 10.8 ng/mL
- concentration at 4 h (pig 58, Study Group 3, SC, rHuPH20 10000 U/mL, 50 mL over 8 min, time 4 h): 8.27 ng/mL
- concentration at 6 h (pig 58, Study Group 3, SC, rHuPH20 10000 U/mL, 50 mL over 8 min, time 6 h): 2.65 ng/mL
- concentration at 0.05 h (pig 64, Study Group 3, SC, rHuPH20 10000 U/mL, 100 mL over 16 min, time 0.05 h): 57 ng/mL
- concentration at 0.333 h (pig 64, Study Group 3, SC, rHuPH20 10000 U/mL, 100 mL over 16 min, time 0.333 h): 253 ng/mL
- concentration at 0.5 h (pig 64, Study Group 3, SC, rHuPH20 10000 U/mL, 100 mL over 16 min, time 0.5 h): 197 ng/mL
- concentration at 1 h (pig 64, Study Group 3, SC, rHuPH20 10000 U/mL, 100 mL over 16 min, time 1 h): 101 ng/mL
- concentration at 2 h (pig 64, Study Group 3, SC, rHuPH20 10000 U/mL, 100 mL over 16 min, time 2 h): 50.9 ng/mL
- concentration at 3 h (pig 64, Study Group 3, SC, rHuPH20 10000 U/mL, 100 mL over 16 min, time 3 h): 29.8 ng/mL
